Test results as given in US12077503B2, “Substituted cyclic amides and their use as herbicides” (FMC CORPORATION, priority 2015, dated 2024).

Experiments:
Assay type in all cases: in vivo
Kochia (Kochia scoparia) [1] = assay: Test A preemergence
Method in brief: (§1)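 Treatment is preemergence as a directed soil spray after planting, or postemergence at the one- to two-leaf stage, with test chemical in a non-phytotoxic solvent mixture plus surfactant. Plants stay in the greenhouse about 10 d before visual injury scoring on a 0 to 100 scale versus untreated controls.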

[2] = system: barnyardgrass (Echinochloa crus-galli); assay: Test A preemergence
Method in brief: as §1

[3] = system: giant foxtail (Setaria faberii); assay: Test A preemergence
Method in brief: as §1

[4] = system: pigweed (Amaranthus retroflexus); assay: Test A preemergence
[5] = system: ragweed (common ragweed, Ambrosia elatior); assay: Test A preemergence
Method in brief: as §1

[6] = system: ryegrass, Italian (Italian ryegrass, Lolium multiflorum); assay: Test A preemergence
Method in brief: as §1

[7] = system: Galium (catchweed bedstraw, Galium aparine); assay: Test A postemergence
Method in brief: as §1

Kochia (Kochia scoparia) [8] = assay: Test A postemergence
Method in brief: as §1

[9] = system: barnyardgrass (Echinochloa crus-galli); assay: Test A postemergence
Method in brief: as §1

[10] = system: blackgrass (Alopecurus myosuroides); assay: Test A postemergence
Method in brief: as §1

corn (Zea mays) = assay: Test A postemergence
Method in brief: as §1

[11] = system: giant foxtail (Setaria faberii); assay: Test A postemergence
Method in brief: as §1

[12] = system: pigweed (Amaranthus retroflexus); assay: Test A postemergence
Method in brief: as §1

[13] = system: ragweed (common ragweed, Ambrosia elatior); assay: Test A postemergence
Method in brief: as §1

[14] = system: ryegrass, Italian (Italian ryegrass, Lolium multiflorum); assay: Test A postemergence
Method in brief: as §1

[15] = system: wheat (Triticum aestivum); assay: Test A postemergence
Method in brief: as §1

[16] = system: barnyardgrass (Echinochloa crus-galli); assay: Test B flooded paddy test; conditions: Flood, 0 to 100 scale where 0 is no effect and 100 is complete control, 13 to 15 d
Method in brief: (§2)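 Rating scale 0–100 (visual, vs untreated controls) after a 13–15 d greenhouse period; application to the flood layer, 3 cm above soil and maintained; plants at 2-leaf stage when treated.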

[17] = system: ducksalad (Heteranthera limosa); assay: Test B flooded paddy test; conditions: Flood, 0 to 100 scale where 0 is no effect and 100 is complete control, 13 to 15 d
Method in brief: as §2

rice (Oryra sativa) = assay: Test B flooded paddy test; conditions: Flood, 0 to 100 scale where 0 is no effect and 100 is complete control, 13 to 15 d
Method in brief: as §2

[18] = system: sedge, umbrella (small-flower umbrella sedge, Cyperus difformis); assay: Test B flooded paddy test; conditions: Flood, 0 to 100 scale where 0 is no effect and 100 is complete control, 13 to 15 d
Method in brief: as §2

[19] = 125 g ai/ha, Preemergence, visual injury after approximately 10 d, 0 to 100 scale where 0 is no effect and 100 is complete control
[20] = Preemergence, 500 g ai/ha, visual injury approx. 10 d
[21] = 125 g ai/ha, postemergence, visual rating after approx. 10 d, 0 to 100 scale (0 no effect, 100 complete control)
[22] = Postemergence, 500 g ai/ha, 0 to 100 scale where 0 is no effect and 100 is complete control
[23] = 500 g ai/ha, preemergence, 0 to 100 scale, 0 = no effect, 100 = complete control
[24] = 500 g ai/ha, postemergence, visual injury, 0 to 100 scale (0 no effect, 100 complete control), approx. 10 d

SMILES: O=C1NCC(c2cc(F)c(F)cc2F)C1C(=O)Nc1ccc(F)cc1F (racemic) [Compound 551]
- Plant response rating, Kochia (Kochia (Kochia scoparia) [1]; [19]): 0
- Kochia plant response rating (0 to 100 scale, 0 is no effect, 100 is complete control) (Kochia (Kochia scoparia) [1]; [20]): 0
- Plant response rating, Barnyardgrass [2, 19]: 30
- Barnyardgrass plant response rating (0 to 100 scale, 0 is no effect, 100 is complete control) [2, 20]: 90
- Plant response rating, Foxtail, Giant [3, 19]: 80
- Foxtail, Giant plant response rating (0 to 100 scale, 0 is no effect, 100 is complete control) [3, 20]: 90
- Plant response rating, Pigweed [4, 19]: 0
- Pigweed plant response rating (0 to 100 scale, 0 is no effect, 100 is complete control) [4, 20]: 0
- Plant response rating, Ragweed [5, 19]: 0
- Ragweed plant response rating (0 to 100 scale, 0 is no effect, 100 is complete control) [5, 20]: 0
- Plant response rating, Ryegrass, Italian [6, 19]: 0
- Ryegrass, Italian plant response rating (0 to 100 scale, 0 is no effect, 100 is complete control) [6, 20]: 0
- Plant response rating, Galium [7, 21]: 0
- Plant response rating, Galium [7, 22]: 0
- Plant response rating, Kochia (Kochia (Kochia scoparia) [8]; [21]): 0
- Plant response rating, Kochia (Kochia (Kochia scoparia) [8]; [22]): 0
- Plant response rating, Barnyardgrass [9, 21]: 10
- Plant response rating, Barnyardgrass [9, 22]: 80
- Plant response rating, Blackgrass [10, 21]: 0
- Plant response rating, Blackgrass [10, 22]: 0
- Plant response rating, Corn (corn (Zea mays); [21]): 0
- Plant response rating, Corn (corn (Zea mays); [22]): 0
- Plant response rating, Foxtail, Giant [11, 21]: 50
- Plant response rating, Foxtail, Giant [11, 22]: 80
- Plant response rating, Pigweed [12, 21]: 0
- Plant response rating, Pigweed [12, 22]: 0
- Plant response rating, Ragweed [13, 21]: 0
- Plant response rating, Ragweed [13, 22]: 0
- Plant response rating, Ryegrass, Italian [14, 21]: 0
- Plant response rating, Ryegrass, Italian [14, 22]: 0
- Plant response rating, Wheat [15, 21]: 0
- Plant response rating, Wheat [15, 22]: 0
- Plant response rating, Barnyardgrass ([16]; 250 g ai/ha): 20
- Plant response rating, Ducksalad ([17]; 250 g ai/ha): 85
- Plant response rating, Rice (rice (Oryra sativa); 250 g ai/ha): 15
- Plant response rating, Sedge, Umbrella ([18]; 250 g ai/ha): 0

SMILES: COc1cccc(NC(=O)C2C(=O)NCC2c2cccc(C(F)(F)F)c2)c1F (racemic) [Compound 674]
- Plant response rating, Kochia (Kochia (Kochia scoparia) [1]; [19]): 0
- Plant response rating, Kochia (Kochia (Kochia scoparia) [1]; [23]): 30
- Plant response rating, Barnyardgrass [2, 19]: 60
- Plant response rating, Barnyardgrass [2, 23]: 80
- Plant response rating, Foxtail, Giant [3, 19]: 70
- Plant response rating, Foxtail, Giant [3, 23]: 90
- Plant response rating, Pigweed [4, 19]: 0
- Plant response rating, Pigweed [4, 23]: 0
- Plant response rating, Ragweed [5, 19]: 0
- Plant response rating, Ragweed [5, 23]: 0
- Plant response rating, Ryegrass, Italian [6, 19]: 0
- Plant response rating, Ryegrass, Italian [6, 23]: 0
- Plant response rating, Galium [7, 21]: 0
- Plant response rating, Galium [7, 24]: 0
- Plant response rating, Kochia (Kochia (Kochia scoparia) [8]; [21]): 0
- Plant response rating, Kochia (Kochia (Kochia scoparia) [8]; [24]): 0
- Plant response rating, Barnyardgrass [9, 21]: 30
- Plant response rating, Barnyardgrass [9, 24]: 70
- Plant response rating, Blackgrass [10, 21]: 0
- Plant response rating, Blackgrass [10, 24]: 0
- Plant response rating, Corn (corn (Zea mays); [21]): 0
- Plant response rating, Corn (corn (Zea mays); [24]): 0
- Plant response rating, Foxtail, Giant [11, 21]: 30
- Plant response rating, Foxtail, Giant [11, 24]: 80
- Plant response rating, Pigweed [12, 21]: 0
- Plant response rating, Pigweed [12, 24]: 0
- Plant response rating, Ragweed [13, 21]: 0
- Plant response rating, Ragweed [13, 24]: 0
- Plant response rating, Ryegrass, Italian [14, 21]: 0
- Plant response rating, Ryegrass, Italian [14, 24]: 0
- Plant response rating, Wheat [15, 21]: 0
- Plant response rating, Wheat [15, 24]: 0
- Plant response rating, Barnyardgrass ([16]; 500 g ai/ha): 60
- Plant response rating, Ducksalad ([17]; 500 g ai/ha): 65
- Plant response rating, Rice (rice (Oryra sativa); 500 g ai/ha): 20
- Plant response rating, Sedge, Umbrella ([18]; 500 g ai/ha): 0
